For data set [1], the system named is Plasmodium falciparum. In words: Antimalarial activity against chloroquine-resistant Plasmodium falciparum W2 in erythrocytes after 72 hrs by LDH activity. The format is functional, organism-based. As to conditions: W2, 72 h.
Data set [2] can be described thus: Selectivity index, ratio of IC50 for african green monkey (Cercopithecus aethiops) Vero cells to IC50 for Plasmodium falciparum W2. As to conditions: read-out: Ratio IC50. It counts as toxicity, cell-based.
The test system of the next data set is Vero. In words: Cytotoxicity against african green monkey Vero cells up to 16.72 uM after 72 hrs by neutral red assay. The format is cell-based. As to conditions: chlorocebus sabaeus.
The nature of data set [3]: Selectivity index, ratio of IC50 for african green monkey (Cercopithecus aethiops) Vero cells to IC50 for Plasmodium falciparum D6. The format is toxicity, cell-based. As to conditions: read-out: Ratio IC50.
The test system of data set [4] is Plasmodium falciparum. Nature of the data set: Antimalarial activity against chloroquine-sensitive Plasmodium falciparum D6 in erythrocytes after 72 hrs by LDH activity. The format is functional, organism-based. The note with it: D6, 72 h.

Broadly, the IC50 is the point on the concentration scale where inhibition reaches its midpoint. In turn, `C[C@@H]1CC[C@H]2[C@@H](C)C(=O)O[C@@H]3O[C@@]4(C)CC[C@@H]1[C@]32OO4` [ARTEMISININ] registered a concentration for half-maximal inhibition (IC50) with Plasmodium falciparum [1] of 15 nM. The results for the selectivity ratio in data set [2] and in data set [3] were greater than 1400 and greater than 476, respectively. The Activity entry with Vero is “Non-toxic”.
Take `Cc1ccc(C2OOC(c3ccc(C(C)C)cc3)OO2)cc1` (stereo not drawn): the results for the selectivity ratio in data set [2] and in data set [3] were greater than 20.7 and greater than 26.4, respectively. Moreover, the Activity entry with Vero is listed as “Non-toxic”.
For `CC(C)c1ccc(C2OOC(c3ccc(C(C)C)cc3)OO2)cc1` (stereo not drawn), in that order: greater than 14, greater than 21.6 and “Non-toxic”.
For `CC(C)(C)c1ccc(C2OOC(c3ccc(C(C)(C)C)cc3)OO2)cc1` (stereo not drawn), in that order: greater than 3.4, greater than 6.1 and “Non-toxic”.
As to `Cc1ccc(C2OOC(c3ccc(C(C)(C)C)cc3)OO2)cc1` (stereo not drawn), the selectivity ratio in data set [2] was greater than 19; in data set [3] it was greater than 25.1. In addition, the Activity entry in the data set on Vero is “Non-toxic”.
As for `CCc1ccc(C2OOC(c3ccc(CC)cc3)OO2)cc1` (stereo not drawn), the selectivity ratio in data set [2] and in data set [3] was greater than 15.9 throughout. In the data set on Vero, the Activity entry is “Non-toxic”. Besides, 990 nM corresponded to half-maximal inhibition in the data set with Plasmodium falciparum [4] (IC50).
As for `CCCCc1ccc(C2OOC(c3ccc(CCCC)cc3)OO2)cc1` (stereo not drawn), the selectivity ratio in data set [2] is greater than 2.8; in data set [3], greater than 3.7. Also, the Activity entry with Vero is on record as “Non-toxic”.
Turning to `COC(=O)c1ccc(C2OOC(c3ccc(C)cc3)OO2)cc1` (stereo not drawn), the IC50 was 6010 nM with Plasmodium falciparum [1] and 3790 nM in the data set with Plasmodium falciparum [4]. The selectivity ratio in data set [2] was greater than 2.5; in data set [3], greater than 4. The Activity entry with Vero was “Non-toxic”.
As for `CCN(CC)CCCC(C)Nc1ccnc2cc(Cl)ccc12` (stereo not drawn) [CHLOROQUINE], the Activity result in the data set on Vero is reported as “Non-toxic”.
As for `COc1ccc(C2OOC(c3ccc(C)cc3)OO2)cc1` (stereo not drawn), the selectivity ratio in data set [2] was greater than 15.4; in data set [3], greater than 21.6. Further, the Activity entry in the data set with Vero is given as “Non-toxic”.
For `CCCc1ccc(C2OOC(c3ccc(CCC)cc3)OO2)cc1` (stereo not drawn), in that order: greater than 19, greater than 23.8 and “Non-toxic”.
In the same order, the values of `CCc1ccc(C2OOC(c3ccc(C)cc3)OO2)cc1` (stereo not drawn) are greater than 36.7, greater than 43.6 and “Non-toxic”.
